# Laboratory results reported in US20250280826A1, “PLANT GROWTH PROMOTER” (KAO CORPORATION, priority 2022, published 2025).
# Columns and labels:
# Format in all cases: in vivo
# soybean (Glycine max) = assay: Test Example 1: soybean yield (dry grain mass) in field after one foliar spray
# Procedure: An ascorbic acid aqueous solution prepared by dissolving ascorbic acid in water and an ascorbic acid aqueous solution prepared by dissolving ascorbic acid in deionized water were prepared, and the influence of the ascorbic acid dissolved in water on the application effect for soybean (Glycine max) was examined.
# The influence of one foliar spray of 500 mass ppm ascorbic acid on the soybean yield was evaluated. The evaluated test plots 1 to 3 are as shown below. • 1 plot: control (no application) • 2 plot: foliar spray of 500 mass ppm ascorbic acid (dissolved in tap water) • 3 plot: foliar spray of 500 mass ppm ascorbic acid (dissolved in deionized water)
# The cultivation of soybean was carried out in a field in Tochigi Prefecture, and the soybean cultivar used was “Sato no Hohoemi.” Of the field, a ridge with a width of 2 m excluding the perimeter was used as one plot, and foliar spray treatment was carried out. […]
# The ascorbic acid used was “Food Additive Grade Vitamin C (L-ascorbic acid) Fine Mesh TypeSSS” manufactured by Fuso Chemical Co. Ltd. An aqueous solution of 500 mass ppm ascorbic acid was dissolved in tap water or deionized water for production. […] The dry grain mass was measured as yield data.
# After calculating the average grain weight of each plant in one plot, the mean and the standard deviation of three plots were calculated (FIG. 1).
# chickpea = assay: Example 7: initial growth index in chickpea (above-ground part dry weight); conditions: ascorbic acid 1 500 mass ppm, tap water vs deionized water
# Procedure: Medium-term fertilizer effect type culture soil (Takii hydrous cell medium-term fertilizer effect type, Takii & Co., Ltd.) and vermiculite grains (Akagi-Engei Co., Ltd.) were mixed at a volume ratio of 1:1, and the soil was placed in a polypot (diameter: 10.5 cm, height: 9 cm). The chickpea used was seeds of Kabuli species (purchased from Nikko Seed Co. Ltd.). After tap water was supplied in an amount of 250 mL per pot, 2 seeds per pot were each sown at a depth of from about 1 to 2 cm from the soil surface. The number of repeats in each test plot was 6 (n=6). […]
# The cultivation conditions and the foliar spray treatment method were the same as those in Example 6 (example of azuki bean). The evaluated test plots 1 to 4 are as follows.
# On day 28 after sowing, the plant body was dried at 90° C. for 24 hours, and the above-ground part dry weight of the plant body was then measured. • 1 plot: control (no application) • 2 plot: foliar spray of 1 500 mass ppm ascorbic acid (dissolved in tap water) • 3 plot: foliar spray of 1 500 mass ppm ascorbic acid (dissolved in deionized water) • 4 plot: foliar spray of 1 500 mass ppm ascorbic acid+1 mass ppm BHT+50 mass ppm isobutyl alcohol+350 mass ppm sorbitan monolaurate (dissolved in tap water) […]
# soybean = assay: Example 4: soybean yield-enhancing effect in field (dry grain mass); conditions: ascorbic acid 1,500 ppm, one foliar spray, 6.7 mL per plant, day 75 after sowing
# Procedure: The influence of foliar spray of a composition containing 1 500 ppm ascorbic acid on soybean yield was evaluated. Foliar spray was carried out only once, and types of test plots were examined (Table 5). The cultivation of soybean was carried out in a field in Tochigi Prefecture, and the soybean cultivar used was “Sato no Hohoemi.” Of the field, a ridge with a width of 2 m excluding the perimeter was used as one plot, and foliar spray treatment was carried out. 3 plot tests were carried out per test plot. An average of 10 plants were cultivated in the range of 2 m, which was set as one plot. In addition to the reagents mentioned in Example 2, polyoxyethylene lauryl ether was used as a nonionic surfactant. Further, the urea, potassium dihydrogen phosphate, sodium sulfite, glutathione, and EDTA used were those manufactured by FUJIFILM Wako Pure Chemical Corporation. The reagents were dissolved in tap water or deionized water to prepare spraying solutions. By using a battery-driven atomizer (GT-5HS, Koshin Ltd.), 6.7 mL of the ascorbic acid aqueous solution per plant was sprayed over the entire soybean plant body. […] The dry grain mass was measured as yield data. After calculating the average grain weight of each plant in one plot, the mean and the standard deviation for the eight plots were calculated (FIG. 9).
structure (smiles),measurement,setting,value
"O=C1O[C@H]([C@@H](O)CO)C(O)=C1O [ascorbic acid, (R)-3,4-dihydroxy-5-((S)-1,2-dihydroxyethyl)furan-2(5H)-one]",effects of ascorbic acid on seed weight,soybean (Glycine max); 500 mass ppm dissolved in tap water,effects of ascorbic acid disappear
same,effects of tap water and deionized water on the seed weight,"soybean (Glycine max); 500 mass ppm, 20 mL per plant, day 60 after sowing, tap water vs deionized water",different effects
same,effects on the initial growth index,chickpea,varied in accordance with the water quality
same,effects of tap water and deionized water on seed weight,soybean,different from each other
